Columns and labels:
[1] = Solubility tests in representative solvents (Vogel protocol); conditions: 25 °C; for solubility: thermodynamic from solid
Description: The solubilities of the prepared ILs in ten representative solvents were determined according to the protocols from Vogel’s Textbook of Practical Organic Chemistry. The solvents chosen for the study were arranged in order of descending value of their Snyder polarity index: water—9.0, methanol—6.6, acetone—5.1, isopropanol—4.3, toluene—2.3, and hexane—0.0.

[2] = tested on: radish (Raphanus sativus) sprouts; assay: Phytotoxicity test on radish sprouts; assay type: in vivo; conditions: for Reduction in Sprout Mass: compared with untreated control; for Mass of 25 Sprouts: radish, 5 days, UTC 3.09 g
Description: Twenty five seeds of radish (Raphanus sativus) were placed on a filter tissue in a Petri dish. […] Then, sprouts were weighted. All variants of treatment were tested together, with 3 replications (plates) in each of 2 cycles performed. Results were subjected to statistical analysis as described in Section 4.8.
(§1) Statistical significance of the effect of the treatments of plants with tested compounds on the phytotoxicity and SAR induction was assessed with the ANOVA test performed using the Statistica program StatSoft with software version 9.1 (StatSoft Sp. z o.o., Kraków, Poland). The statistical assumptions of normality and homogeneity of variances were verified prior to conducting the ANOVA tests. Differences between the means were estimated with Tukey’s HSD test at the significance level of p = 0.05.

[3] = tested on: Tobamovirus tabaci (tobacco mosaic virus, TMV) on Nicotiana tabacum cv. Xanthi; assay: SAR induction assay: necrotic area after TMV inoculation of sprayed tobacco; assay type: in vivo; conditions: for SAR Induction (percentage of necrotic area on leaves): TMV inoculation after 7 days, read 7 days later, UTC 34.54; for Reduction in Necrotic Area: compared with untreated control plants; for Percentage of necrotic spot coverage (leaf shown in supplementary figure): single leaf image
Description: Plants of Nicotiana tabacum cv. Xanthi were grown under greenhouse conditions at 25 °C and 50% relative humidity, under natural daylight during the May–August growing season, with a natural photoperiod. The plants were sprayed with solutions containing the tested compounds.
In all experiments, the TMV SL-1 isolate Tobamovirus (TMV) was used. To obtain a viral inoculum, Nicotiana tabacum cv. Samsun plants were sap-inoculated with previously virus-infected plant material. After the appearance of disease symptoms on the infected plants (leaf mosaic), the virus was isolated by sucrose density gradient centrifugation with 0.01 M Tris-HCl, pH 7.0, to prepare the infectious inoculum. The concentration of virus in the obtained preparation was determined spectrophotometrically. The samples of TMV were stored at −20 °C until use.
The tested active substances at a given concentration were sprayed on tobacco plants with three fully developed leaves. The volume of working solution used was equal to 10 mL per plant. The compounds were dissolved in a water/propylene glycol solution (95/5, v/v). The plants of the untreated control variant were sprayed with a water/propylene glycol solution (95/5, v/v) that was used for the preparation of solutions of the tested compounds. After seven days, the plants were mechanically inoculated using purified viral preparations (0.01 ng/mL as described in [34]).
The plants were inoculated with the TMV inoculum at a concentration of 3.8 × 10^−4 ng per leaf. For each variant of treatment, 3 plants were sprayed, and 3 leaves of each plant were analyzed. The entire experiment was performed in 2 replicates. Necrotic areas on the leaves were determined using ImageJ software.
The surface of a leaf or an area with necrotic spots is represented by a set of pixels in the image, which are counted by the program. Reduction in necrotic area (ISAR) is expressed by the following formula:(1) ISAR=100−(At/Ac∗100) where At is the ratio of the area of necrotic spots caused by viral infection that appeared on the leaf treated with the test substance to the whole area of the leaf; Ac is the ratio of the area of the necrotic spots caused by viral infection that appeared on the leaf of the control plant to the whole area of the leaf.
as §1

[4] = Thermogravimetric analysis (TGA), thermal stability; conditions: TGA under nitrogen, 10 °C/min; for Thermal Stability T5%onset: 5% weight loss onset; for Thermal Stability Tonset: decomposition onset
Description: TGA was performed on a TGA Q50 (Texas Instruments, Dallas, TX, USA) under nitrogen. Samples (5–10 mg) were heated from 25 °C to 500 °C at 10 °C/min with an isothermal step at 85 °C for 10 min. T5%onset and Tonset values were recorded.

[5] = topical, read-out: Reduction in Necrotic Area

SMILES | Solubility in Hexane ([1]; Snyder polarity index 0.0) | Solubility in Toluene ([1]; Snyder polarity index 2.3) | Solubility in Isopropanol ([1]; Snyder polarity index 4.3) | Solubility in Acetone ([1]; Snyder polarity index 5.1) | Solubility in Methanol ([1]; Snyder polarity index 6.6) | Solubility in Water ([1]; Snyder polarity index 9.0) | Reduction in Sprout Mass ([2]; 125 mg/L) | Mass of 25 Sprouts ([2]; 125 mg/L) | Reduction in Sprout Mass ([2]; 250 mg/L) | Mass of 25 Sprouts ([2]; 250 mg/L) | SAR Induction (percentage of necrotic area on leaves) ([3]; 125 mg/L spray) | Reduction in Necrotic Area ([3]; 125 mg/L) | SAR Induction (percentage of necrotic area on leaves) ([3]; 250 mg/L spray) | Reduction in Necrotic Area ([3]; 250 mg/L) | Thermal Stability T5%onset [4] | Percentage of necrotic spot coverage (leaf shown in supplementary figure) ([3]; 125 mg/L) | Percentage of necrotic spot coverage (leaf shown in supplementary figure) ([3]; 250 mg/L) | Thermal Stability Tonset [4] | also measured
C[N+](C)(C)CCCl.O=C([O-])c1cc(Cl)nc(Cl)c1 [[CC][Ina]] | − (insoluble) | − (insoluble) | +/− (of limited solubility) | − (insoluble) | + (soluble) | + (soluble) | 15.05% | 2.63 fgh D | 28.21% | 2.22 gh C | 14.80 cd AB % | 57.2% | 12.52 ef A % | 63.8% | 177.2 °C |  |  |  | 
C[N+](C)(C)CCCl.O=C([O-])c1cc(Cl)cc(Cl)c1O [[CC][3,5-ClSal]] | − (insoluble) | − (insoluble) | +/− (of limited solubility) | − (insoluble) | + (soluble) | +/− (of limited solubility) | 27.51% | 2.24 cde C g | 37.38% | 1.94 ef B g | 7.79 ab A % | 77.4% | 4.93 abc A % | 85.7% | 208.3 °C |  |  |  | 
C[N+](C)(C)CCCl.O=C([O-])c1cc(Cl)ccc1O [[CC][5-ClSal]] | − (insoluble) | − (insoluble) | +/− (of limited solubility) | − (insoluble) | + (soluble) | +/− (of limited solubility) | 19.15% | 2.50 efg D | 30.15% | 2.16 fgh C | 3.15 a AB % | 90.9% | 1.58 a A % | 95.4% | 217.1 °C | 2.28% | 1.15% | 138.5 °C | Difference in percentage reduction in leaf necrotic area between 125 mg/L and 250 mg/L ([3]; in vivo): approximately 4.5 percentage points
C[N+](C)(C)CCCl.O=C([O-])c1ccc(Cl)cc1O [[CC][4-ClSal]] | − (insoluble) | − (insoluble) | +/− (of limited solubility) | − (insoluble) | + (soluble) | +/− (of limited solubility) |  | 2.84 hi D g | 19.63% | 2.48 ij C g | 12.47 bc B % | 63.9% | 7.85 bcde A % | 77.3% | 205.3 °C |  |  | 137.2 °C | 
C[N+](C)(C)CCCl.O=C([O-])c1ccccc1O [[CC][Sal], chlormequat salicylate] |  |  |  |  |  |  | 8.79% | 2.82 hi C g | 26.91% | 2.26 hi B g | 19.99 de B % |  | 12.39 ef A % |  | 186.1 °C |  |  | 93.3 °C | solubility ([1]; organic solvent or mixture, Solubility in Acetone, Snyder polarity index 5.1): < 33.3 mg/mL; solubility ([1]; organic solvent or mixture, Solubility in Hexane, Snyder polarity index 0.0): < 33.3 mg/mL; solubility ([1]; organic solvent or mixture, Solubility in Isopropanol, Snyder polarity index 4.3): 33.3 to 100 mg/mL; solubility ([1]; organic solvent or mixture, Solubility in Methanol, Snyder polarity index 6.6): > 100 mg/mL; solubility ([1]; organic solvent or mixture, Solubility in Toluene, Snyder polarity index 2.3): < 33.3 mg/mL; solubility ([1]; water, Solubility (water)): > 100 mg/mL; solubility ([1]; water, Solubility in Water, Snyder polarity index 9.0): > 100 mg/mL; pest or weed control at 125 µg/mL [3, 5]: 42.1%; pest or weed control at 250 µg/mL [3, 5]: 64.1%
C[N+](C)(C)CCCl.O=C([O-])c1cccc(Cl)c1O [[CC][3-ClSal]] | − (insoluble) | − (insoluble) | +/− (of limited solubility) | − (insoluble) | + (soluble) | +/− (of limited solubility) | 15.97% | 2.60 fgh D | 36.68% | 1.96 ef C g | 2.52 a AB % | 92.7% | 1.39 a A % | 96.0% | 196.2 °C | 0.79% | 0.27% | 136.1 °C | 

Source: publication PMC12610573, “New Chlormequat-Based Ionic Liquids as Plant Resistance Inducers” (Molecules, 2025)
